Results as given in US20080146593A1, “Substituted 5-Phenyl Pyrimidines I In Therapy” (Basf Aktiengesellschaft, priority 2005, published 2008).

The compounds below were run on HeLa cells (assay: Measurement of the cell cycle inhibition in HeLa cells). Settings: HeLa B cells, 20 h incubation with compound; FACS ratio G0/G1 to G2/M vs DMSO; concentration at which 50% of cells are in cell cycle arrest.
Type: cell-based
Experimental: Measurement of the Cell Cycle Inhibition in HeLa Cells—Test Procedure:
HeLa B cells are grown in DMEM (Life Technologies Cat No 21969-035) supplemented with 10% Fetal Calf Serum (FCS, Life Technologies Cat No 10270-106) in 180 cm^2 Flasks at 37° C., 92% humidity and 7% CO2.
Cells are seeded at 5×10^4 cells per well in a 24-well plate. Twenty hours later the compounds are added such that the final concentration is 1×10^−6, 3.3×10^−7, 1.1×10^−7, 3.7×10^−8, 1.2×10^−8 and 1×10^−9 M in a final volume of 500 μl. DMSO alone is added to 6 wells as a control. Cells are incubated with the compounds as above for 20 h. Then cells are observed under the microscope to check for cell death, and the 24-well plate is then centrifuged at 1200 rpm for 5 min at 20° C., acceleration position 7 and break position 5 (Eppendorf centrifuge 5804R).
The supernatant is removed and the cells lysed with 0.5 ml RNase Buffer (10 mM NaCitrate, 0.1% Nonidet NP40, 50 μg/ml RNase, 10 μg/ml Propidium iodide) per well. The plates are then incubated for at least 30 min in the dark at RT and the samples then transferred to FACS tubes. Samples are measured in a FACS machine (Beckton Dickinson) at the following settings:
Instrument Settings of the FACS Calibur:
The ratio of cells in G0/G1-phase to G2/M phase is calculated and compared to the value for the controls (DMSO) only. Results are given in table 2 as the IC50 value calculated from the concentration curve plotted against the cell cycle ratio and indicate the compound concentration at which 50% of cells are in cell cycle arrest after treatment with the compound.
Compound `C[C@H](Nc1nc(C(N)=NO)nc(Cl)c1-c1c(F)cccc1Cl)C(F)(F)F` [Example 176] has an IC50 of 20 nM.
`Fc1cc(F)c(-c2c(Cl)nc(-n3ccnn3)nc2N2CCCCC2)c(F)c1` [Example 56] gave an IC50 of 11 nM.
Work on `CC[C@H](C)Nc1nc(-n2cccn2)nc(Cl)c1-c1ccc(C)cc1F` [Example 102] yielded an IC50 of 50 nM.
Compound `CCC(C)Nc1nc(ON=C(C)C)nc(Cl)c1-c1c(C)cccc1F` (stereo not shown) [Example 112] has an IC50 of 21 nM.
For `CCC(C)Nc1nc(-n2cc(C#N)cn2)nc(Cl)c1-c1c(F)cccc1Cl` (stereo not shown) [Example 163], the IC50 was 30 nM.
In the case of `Cc1nc(C)n(-c2nc(Cl)c(-c3c(F)cc(F)cc3F)c(N3CCCCC3)n2)n1` [Example 54], the IC50 is reported as 23 nM.
For `CC1CCN(c2nc(C(N)=NO)nc(Cl)c2-c2c(F)cc(F)cc2F)CC1` [Example 58], the IC50 was 26 nM.
Work on `CC[C@H](C)Nc1nc(C(N)=NO)nc(Cl)c1-c1ccc(F)cc1Cl` [Example 168] yielded an IC50 of 36 nM.
`C[C@H](Nc1nc(C(N)=NOC(F)F)nc(Cl)c1-c1c(F)cc(F)cc1F)C(F)(F)F` [Example 177] showed an IC50 of 21 nM.
`C[C@H](Nc1nc(C#N)nc(Cl)c1-c1c(F)cc(F)cc1F)C(F)(F)F` [Example 10] gave an IC50 of 47 nM.
Compound `CC(C)[C@@H](C)Nc1nc(-n2cnc([N+](=O)[O-])n2)nc(Cl)c1-c1c(F)cc(F)cc1F` [Example 89] has an IC50 of 47 nM.
`Fc1cc(F)c(-c2c(Cl)nc(-n3ccnn3)nc2N2CC=CCC2)c(F)c1` [Example 45] was tested, and the IC50 was 17 nM.
`COc1cc(F)c(-c2c(Cl)nc(-c3ccccn3)nc2N2CCC(C)CC2)c(F)c1` [Example 61] gave an IC50 of 21 nM.
`Cc1cn(-c2nc(Cl)c(-c3c(F)cc(F)cc3F)c(NC(C)C(F)(F)F)n2)nc1-c1ccco1` (stereo not shown) [Example 95] gave an IC50 of 39 nM.
In the case of `Cc1csc(-c2nc(Cl)c(-c3c(F)cc(F)cc3F)c(N[C@@H](C)C(F)(F)F)n2)n1` [Example 178], the IC50 is reported as 20 nM.
In the case of `CC(C)Nc1nc(-n2nccc2[N+](=O)[O-])nc(Cl)c1-c1c(F)cc(F)cc1F` [Example 23], the IC50 is reported as 39 nM.
`Cc1cnn(-c2nc(Cl)c(-c3c(F)cc(F)cc3F)c(N3CCCCC3)n2)c1` [Example 55] showed an IC50 of 26 nM.
`CON=C(N)c1nc(Cl)c(-c2cc(F)ccc2Cl)c(N[C@@H](C)C(C)C)n1` [Example 202] showed an IC50 of 38 nM.
In the case of `Cc1ccn(-c2nc(Cl)c(-c3c(F)cc(F)cc3F)c(NC(C)C)n2)n1` [Example 18], the IC50 is reported as 39 nM.
In the case of `CC(Nc1nc(-n2ccc(N)n2)nc(Cl)c1-c1c(F)cc(F)cc1F)C(F)(F)F` (stereo not shown) [Example 57], the IC50 is reported as 5.8 nM.
Work on `Cc1ccc(-c2c(Cl)nc(-n3cccn3)nc2N2CCCC(C)C2)c(F)c1` (stereo not shown) [Example 99] yielded an IC50 of 39 nM.
`CON=C(N)c1nc(Cl)c(-c2ccc(F)cc2Cl)c(N[C@@H](C)C(F)(F)F)n1` [Example 211] gave an IC50 of 24 nM.
With `CC1CCCN1c1nc(-n2ccnn2)nc(Cl)c1-c1c(F)cc(F)cc1F` (stereo not shown) [Example 76] the IC50 was 7.6 nM.
For `CC(C)[C@@H](C)Nc1nc(-n2ccnn2)nc(Cl)c1-c1c(F)cccc1Cl` [Example 50], the IC50 was 9.1 nM.
In the case of `CC1CCCN1c1nc(-n2cncn2)nc(Cl)c1-c1c(F)cccc1Cl` (stereo not shown) [Example 98], the IC50 is reported as 46 nM.
Work on `Cc1cnn(-c2nc(Cl)c(-c3c(F)cc(F)cc3F)c(N[C@@H](C)C(F)(F)F)n2)c1Cl` [Example 155] yielded an IC50 of 22 nM.
`COc1cc(F)c(-c2c(Cl)nc(-c3ccccn3)nc2N[C@@H](C)C(C)C)c(F)c1` [Example 65] was tested, and the IC50 was 20 nM.
Compound `CC(C)[C@@H](C)Nc1nc(-n2cccn2)nc(Cl)c1-c1c(F)cccc1Cl` [Example 46] has an IC50 of 38 nM.
For `COc1cc(F)c(-c2c(Cl)nc(-n3cncn3)nc2N2CCC(C)CC2)c(F)c1` [Example 68], the IC50 was 20 nM.
In the case of `CCC(C)Nc1nc(-n2cccn2)nc(Cl)c1-c1c(F)cccc1Cl` (stereo not shown) [Example 106], the IC50 is reported as 12 nM.
`CC1CCCCN1c1nc(-n2cccn2)nc(Br)c1-c1c(F)cc(F)cc1F` (stereo not shown) [Example 161] showed an IC50 of 50 nM.
Work on `CON=C(N)c1nc(Cl)c(-c2c(F)cc(F)cc2F)c(N[C@@H](C)C(C)C)n1` [Example 147] yielded an IC50 of 41 nM.
`CC1CCN(c2nc(-n3cncn3)nc(Cl)c2-c2c(F)cc(F)cc2F)CC1` [Example 28] was tested, and the IC50 was 17 nM.
Work on `C[C@H](Nc1nc(-n2nccn2)nc(Br)c1-c1c(F)cc(F)cc1F)C(F)(F)F` [Example 165] yielded an IC50 of 30 nM.
`C[C@H](Nc1nc(-n2cc(I)cn2)nc(Cl)c1-c1c(F)cc(F)cc1F)C(F)(F)F` [Example 34] gave an IC50 of 25 nM.
Work on `CC(C)[C@H](C)Nc1nc(C(N)=NO)nc(Cl)c1-c1c(F)cc(F)cc1F` [Example 145] yielded an IC50 of 23 nM.
In the case of `CC(C)[C@H](C)Nc1nc(C(N)=NO)nc(Cl)c1-c1ccc([N+](=O)[O-])cc1Cl` [Example 192], the IC50 is reported as 30 nM.
`Cc1nc(-c2nc(Cl)c(-c3c(F)cc(F)cc3F)c(N[C@H](C)C(C)C)n2)cs1` [Example 70] showed an IC50 of 35 nM.
`CCC(C)Nc1nc(-n2cccn2)nc(Cl)c1-c1ccc(F)cc1F` (stereo not shown) [Example 105] gave an IC50 of 45 nM.
In the case of `C[C@H](Nc1nc(-n2cc(C#N)cn2)nc(Cl)c1-c1c(F)cc(F)cc1F)C(F)(F)F` [Example 162], the IC50 is reported as 17 nM.
For `COc1cc(F)c(-c2c(Cl)nc(-n3cnc([N+](=O)[O-])n3)nc2N2CCC(C)CC2)c(F)c1` [Example 86], the IC50 was 24 nM.
`Cc1ccnc(-c2nc(Cl)c(-c3c(F)cc(F)cc3F)c(N[C@@H](C)C(F)(F)F)n2)c1` [Example 14] showed an IC50 of 14 nM.
For `C=CCN(C)c1nc(-n2ccnn2)nc(Cl)c1-c1c(F)cc(F)cc1F` [Example 206], the IC50 was 20 nM.
For `Cc1nc(-n2ccnn2)nc(N[C@@H](C)C(F)(F)F)c1-c1c(F)cc(F)cc1F` [Example 157], the IC50 was 19 nM.
`Fc1cc(F)c(-c2c(Cl)nc(-n3cncn3)nc2N2CCCCC2)c(F)c1` [Example 52] was tested, and the IC50 was 22 nM.
For `Cc1nc(-c2nc(Cl)c(-c3c(F)cc(F)cc3F)c(NC3CCCC3)n2)cs1` [Example 72], the IC50 was 46 nM.
In the case of `C=CCCN(C)c1nc(-n2cc(C)cn2)nc(Cl)c1-c1ccc(F)cc1Cl` [Example 133], the IC50 is reported as 41 nM.
`CCN(CC)c1nc(-c2cnccn2)nc(Cl)c1-c1c(F)cc(F)cc1F` [Example 26] was tested, and the IC50 was 38 nM.
With `Cc1ccn(-c2nc(Cl)c(-c3c(F)cc(F)cc3F)c(N[C@H](C)C(C)C)n2)n1` [Example 92] the IC50 was 26 nM.
With `C[C@H](Nc1nc(-n2ccnn2)nc(Cl)c1-c1c(F)cc(F)cc1F)C(F)(F)F` [Example 205] the IC50 was 8.3 nM.
With `CCC(C)Nc1nc(-n2cccn2)nc(Cl)c1-c1c(C)cccc1F` (stereo not shown) [Example 109] the IC50 was 25 nM.
In the case of `C[C@@H](Nc1nc(C(N)=NO)nc(Cl)c1-c1c(F)cc(F)cc1F)C(F)(F)F` [Example 137], the IC50 is reported as 1.5 nM.
For `COc1cc(F)c(-c2c(Cl)nc(-n3ccnn3)nc2N2CCC(C)CC2)c(F)c1` [Example 69], the IC50 was 21 nM.
`CCC(C)Nc1nc(-n2ccc(N)n2)nc(Cl)c1-c1c(F)cccc1Cl` (stereo not shown) [Example 148] showed an IC50 of 34 nM.
`COc1ccc(-c2c(Cl)nc(C(N)=O)nc2N[C@@H](C)C(F)(F)F)c(Cl)c1` [Example 217] showed an IC50 of 23 nM.
With `CCC(C)Nc1nc(-n2cncn2)nc(Cl)c1-c1c(F)cccc1F` (stereo not shown) [Example 113] the IC50 was 49 nM.
`CC1CCCN1c1nc(-n2cncn2)nc(Cl)c1-c1c(F)cc(F)cc1F` (stereo not shown) [Example 75] gave an IC50 of 14 nM.
With `CNC(=O)c1nc(Cl)c(-c2c(F)cc(F)cc2F)c(N[C@@H](C)C(F)(F)F)n1` [Example 174] the IC50 was 42 nM.
With `Cc1ccn(-c2nc(Cl)c(-c3c(F)cccc3Cl)c(NC(C)C)n2)n1` [Example 20] the IC50 was 39 nM.
`CCOC(=O)C(C)C=NNc1nc(Cl)c(-c2c(F)cc(F)cc2F)c(N[C@@H](C)C(F)(F)F)n1` (stereo partly shown) [Example 152] gave an IC50 of 24 nM.
`CCC(C)Nc1nc(-n2cncn2)nc(Cl)c1-c1c(C)cccc1F` (stereo not shown) [Example 110] was tested, and the IC50 was 25 nM.
In the case of `CCCNc1nc(-n2nc(C)cc2C(=O)OCC)nc(Cl)c1-c1ccc(C)cc1F` [Example 160], the IC50 is reported as 31 nM.
`CC1CCCN1c1nc(-n2cccn2)nc(Cl)c1-c1c(F)cc(F)cc1F` (stereo not shown) [Example 74] gave an IC50 of 13 nM.
Compound `CC(C)[C@H](C)Nc1nc(C(N)=NO)nc(Cl)c1-c1ccc(F)cc1Cl` [Example 193] has an IC50 of 9 nM.
Compound `C[C@H](Nc1nc(C(N)=O)nc(Cl)c1-c1c(F)cccc1F)C(F)(F)F` [Example 180] has an IC50 of 41 nM.
With `CON=C(N)c1nc(Cl)c(-c2c(F)cc(F)cc2F)c(N[C@H](C)C(F)(F)F)n1` [Example 130] the IC50 was 1.8 nM.
`Cc1cc(C)n(-c2nc(Cl)c(-c3c(F)cc(F)cc3F)c(N3CCC(C)CC3)n2)n1` [Example 30] showed an IC50 of 48 nM.
Work on `C=CCN(CC=C)c1nc(-n2ccc(N)n2)nc(Cl)c1-c1ccc(F)cc1Cl` [Example 135] yielded an IC50 of 18 nM.
`C=CCN(CC=C)c1nc(-n2cc(Br)cn2)nc(Cl)c1-c1ccc(F)cc1Cl` [Example 134] was tested, and the IC50 was 50 nM.
`COc1c(C)cnn1-c1nc(Cl)c(-c2c(F)cc(F)cc2F)c(N[C@@H](C)C(F)(F)F)n1` [Example 154] gave an IC50 of 26 nM.
Work on `CC1CCCCN1c1nc(-n2cccn2)nc(Cl)c1-c1c(F)cc(F)cc1F` (stereo not shown) [Example 96] yielded an IC50 of 29 nM.
Compound `C[C@H](Nc1nc(C(N)=O)nc(Cl)c1-c1c(F)cc(F)cc1F)C(F)(F)F` [Example 159] has an IC50 of 23 nM.
`Cc1ccnc(-c2nc(Cl)c(-c3c(F)cc(F)cc3F)c(NC(C)C)n2)c1` [Example 15] gave an IC50 of 43 nM.
